{
  "source": "patent EP2669276A1",
  "about": "(Université de Strasbourg, priority 2012, dated 2013)",
  "key": {"hNPFFR2": {"target": "T1, hNPFFR2 (Homo sapiens, UniProt Q9Y5X5)", "T1 construct": "The cDNA encoding the full-length human NPFFR1 and human NPFFR2; expressed in transfected cells", "T1 sequence (Q9Y5X5 whole entry)": "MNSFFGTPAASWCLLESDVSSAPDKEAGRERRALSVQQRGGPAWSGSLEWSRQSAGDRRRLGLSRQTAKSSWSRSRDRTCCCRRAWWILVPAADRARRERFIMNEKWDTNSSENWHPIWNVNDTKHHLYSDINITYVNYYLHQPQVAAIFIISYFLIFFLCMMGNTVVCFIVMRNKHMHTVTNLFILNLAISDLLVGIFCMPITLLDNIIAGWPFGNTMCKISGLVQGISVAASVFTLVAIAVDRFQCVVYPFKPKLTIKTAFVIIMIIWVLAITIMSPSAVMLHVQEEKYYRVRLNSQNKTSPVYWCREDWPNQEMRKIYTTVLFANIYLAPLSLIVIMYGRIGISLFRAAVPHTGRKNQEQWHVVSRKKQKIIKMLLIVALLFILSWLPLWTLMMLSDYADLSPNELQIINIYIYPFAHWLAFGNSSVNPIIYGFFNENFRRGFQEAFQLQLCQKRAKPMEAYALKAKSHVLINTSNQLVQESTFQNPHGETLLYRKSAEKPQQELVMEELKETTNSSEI", "experiment": "cAMP measurement (forskolin-stimulated cAMP accumulation) in CHO cells expressing SF-hNPFFR2", "format": "cell-based", "details": "antagonism of NPFF, Schild analysis; S.E.M. below 15%", "protocol": "(§1) Functional coupling of SF-hNPFFR1 and SF-hNPFFR2 to adenylyl cyclase was assessed by measuring the inhibitory effects of agonist/antagonist and related compounds on forskolin-stimulated cAMP accumulation in CHO cells stably expressing both receptors as previously described (Gicquiaux et al., 2001) with minor modifications. Briefly, 80% confluent CHO cells expressing SF-hNPFFR1 or SF-hNPFFR2 were harvested and seeded in 96-well plates at an initial density of 10,000 cells per well. After 1-2 days of culture (90% confluency), cells were washed with 0.2 ml of PBS (in mM: 137 NaCl, 2.7 KCl, 0.9 CaCl2, 0.5 MgCl2, 6.5 Na2HPO4, 1.5 KH2PO4, pH 7.2), and then incubated at 37°C for 10 min with 0.2 ml assay buffer (in mM: 150 NaCl, 5 KCl, 2.5 CaCl2, 1.2 KH2PO4, 1.2 MgSO4, 25 NaHCO3, 10 HEPES, 10 mg/ml BSA, pH 7.4). After removal of buffer, 0.06 ml of fresh buffer containing 1 mM 3-isobutyl-1-methyl-xanthine (IBMX) was added for 10 min and cells were exposed to 10 µM forskolin without and with compounds (10^-10-10^-5 M) for 10 min at 37 °C in a final volume of 0.1 ml. The reaction was stopped by addition of 0.04 ml volume ice-cold 0.5 M HCl and cells were frozen (-80°C 1 hour) disrupted by sonication and suspensions were centrifuged at 2,000 × g for 15 min. The resulting supernatants were stored at -20°C until determination of cAMP by radioimmunoassay as described (Cailla et al., 1973). […]"}, "[1]": {"system": "hyperalgesia induced by administration of opiate analgesics", "details": "rat, in vivo; cited from earlier work"}, "hNPFFR1": {"target": "T2, hNPFFR1 (Homo sapiens, UniProt Q9GZQ6)", "T2 construct": "The cDNA encoding the full-length human NPFFR1 and human NPFFR2; expressed in transfected cells", "T2 sequence (Q9GZQ6 whole entry)": "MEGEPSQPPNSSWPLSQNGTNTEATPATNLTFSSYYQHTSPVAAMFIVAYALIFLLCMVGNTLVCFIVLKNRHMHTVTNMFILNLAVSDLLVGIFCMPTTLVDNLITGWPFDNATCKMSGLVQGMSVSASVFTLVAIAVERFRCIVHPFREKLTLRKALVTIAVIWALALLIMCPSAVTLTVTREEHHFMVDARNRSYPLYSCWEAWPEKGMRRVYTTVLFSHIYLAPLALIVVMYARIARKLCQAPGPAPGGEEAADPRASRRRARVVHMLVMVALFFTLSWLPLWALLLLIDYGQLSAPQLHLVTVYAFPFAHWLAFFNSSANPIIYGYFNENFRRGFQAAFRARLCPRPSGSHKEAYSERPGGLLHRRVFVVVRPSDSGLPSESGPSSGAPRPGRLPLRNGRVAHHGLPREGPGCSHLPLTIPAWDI", "experiment": "cAMP measurement (forskolin-stimulated cAMP accumulation) in CHO cells expressing SF-hNPFFR1", "format": "cell-based", "details": "antagonism of NPVF, Schild analysis; S.E.M. below 15%", "protocol": "as §1"}},
  "data": [
    {"substance": "N^α-adamantan-1-yl-L-Arg-L-Phe-NH2 acetate [RF9]", "values": [
      {"measurement": "pA2 for hNPFFR2", "setting": "hNPFFR2", "value": "6,65"},
      {"measurement": "activity on hyperalgesia induced by repeated administration of opiate analgesics", "setting": "[1]", "value": "antihyperalgesic activity"},
      {"measurement": "pA2 value for hNPFFR1", "setting": "hNPFFR1", "value": 6.47}
    ]}
  ]
}
